How the values were obtained:
male OF-1 mice [1] = assay: half-enclosed platform (HEP) test; format: in vivo, mouse
Text: Rufinamide and carbamazepine were compared in the half-enclosed platform (HEP) test. The test determines how drugs affect the exploratory behaviour of a mouse placed upon a novel, half-enclosed platform and gives information as to whether a drug is a stimulant, depressant or disinhibitory as with, for example the benzodiazepines which increase exploration of the platform. It is also useful for determining duration of action and dose-findings studies. The HEP is a further development of the simple elevated platform used by Kaesermann to assess anxiolytic properties of drugs (Ref. Käsermann H. P. (1986) Psychopharmacol. 89:31-37). In this study carbamazepine and rufinamide were tested in the same dose ranges i.e. 0.32/1/3.2 and 10 mg/kg p.o. of each were given to male OF-1 mice 1 hr before testing.
The ethogram used consists of 9 elements of exploratory behaviour two of which involve static postures i.e. immobility and stretched attend posture, the latter being an ambivalent element indicative of approach-avoidance conflict. These elements are immediately spontaneous and are not induced by either training or punishment procedures. Upright postures which are posturally demanding are useful to detect muscle relaxation e.g. rearing (FIG. 10).

[2] = system: male OF-1 “intruder” mice; assay: Intruder test (social withdrawal of intruder mice); format: in vivo, mouse; details: 1/3/10 mg/kg oral
Protocol: Rufinamide, a Na-channel blocker and anti-epileptic agent, and carbamazepine, an anticonvulsant employed to treat bipolar disorder, were given to male OF-1 “intruder” in oral-doses of 1/3/10 mg/kg, 1 hr before the animals were confronted with an individually-housed, aggressive, male OF-1 resident mouse. […] This increase in social investigation (sociotropic effect) was accompanied by a decrease in the frequency and duration of defensive ambivalence probably through competitive inhibition. No signs of motor stimulation were detected.
The Intruder test duplicates a territorial encounter between a territory holder (aggressive male) and a subordinate “intruder” mouse. […] In this test the intruders receive the treatment whereas the residents remain untreated. (Dixon, A. K., Huber, C., Lowe, D. J. Clin. Psychiatry. 55 (9) Suppl B, 4-7 (1994)). For purposes of this study, rufinamide and carbamazepine were given orally to intruder mice 1 hr before being introduced singly to aggressive residents using doses of ⅓ and 10 mg/kg.
Over 60 ethological elements describing the social and non-social behaviour of mice based on the ethogram originally proposed by Grant and Mackintosh (Grant, E. C. Mackintosh, J. H. Behaviour 21: 246-259 (1963) ) and classified according to 9 behavioural categories (Dixon, A. K., Huber, C., Fisch, H. U. Adv. Study. Behaviour. 19: 171-204 (1990)) form the rodent ethogram as used in this test (FIG. 3).

[3] = system: male OF-1 “intruder” mice; details: earlier work (Dixon et al. 1994); cited from earlier work
male OF-1 mice [4] = details: general statement, no dose given; cited from earlier work
“intruder” rat = details: background statement on anxiolytic compounds; cited from earlier work
[5] = system: Male Rj: Wistar (Han) rats; assay: Vogel Conflict Test in the rat; format: in vivo; details: 64 mg/kg p.o., 60 minutes before the test; p<0.01
Protocol: Rufinamide was dispersed in 0.5% methylcellulose (MC) in distilled water. Vehicle was dispersed in 0.5% MC in distilled water. Clobazam was dispersed in 0.5% MC in distilled water. Methylcellulose (Sigma), batch n° 62K0144, white powder. Distilled water (Laboratoire Aguettant, sterile water for injectable preparation). All substances were stored in a dry, dark, controlled access area and maintained at a controlled ambient temperature (+18° C.). The vehicle suspensions were stored at +4° C.
The vehicle, test substance and reference substance were administered in a volume of 5 ml/kg body weight.
Male Rj: Wistar (Han) rats, 171-205 g body weight range were used. They were supplied by Elevage Janvier, 53940 Le Genest-Saint-Isle, France.
Animals were delivered to the laboratory at least 5 days before the experiment, during which time they were acclimatized to the laboratory conditions. They were housed in groups of 5 in macrolon cages (41×25×14 cm) on wood litter (Litalabo—SPPS, 95100 Argenteuil, France) with free access to food (Code 113-SAFE, 91360 Epinay-sur-Orge, France) and water until
Results in grouped data tables are presented as means followed by a ± sign and the standard error of the mean (s.e.m.) on the basis of 15 animals per group and as percent change from control. The statistical tests used are indicated with the method. All statistical calculations were performed using commercial software (Microsoft Excel®, GB Stat version 6.5), and verified test by test according to Porsolt & Partners Pharmacology's standardized internal procedures. All differences were considered statistically significant when the null hypothesis could be rejected at the risk α=0.05 or less.
Rats were deprived of water for 48 hours and were then placed individually into a transparent Plexiglas enclosure (15×32×34 cm) with a floor consisting of stainless steel bars (0.4 cm) spaced 1 cm apart. The back wall of the enclosure was made of opaque Plexiglass thereby concealing the observer from the experimental animal. In the centre of the opposite wall, 5 cm above the floor, a metal water spout protruded into the cage and was connected to one pole of a shock generator (Apelex: Type 011346). The other pole of the shock generator was connected to the metal grid floor.
The rat was left to explore until it found the water spout. Then, every time it drank, it received a slight electric shock (1.7 mA, 1 sec.) 2 seconds after it started lapping. The number of shocks received (punished drinkings) was counted during a 3 minute period.
15 rats were studied per group. The test was performed blind.
rufinamide was evaluated at 25, 50, 100 and 200 mg/kg, administered p.o. 60 minutes before the test, and compared with a vehicle control group.
Clobazam (64 mg/kg), administered under the same experimental conditions, was used as reference substance.
Data were analyzed by comparing treated groups with vehicle control using unpaired Student's t tests.

[6] = small scale placebo controlled study; cited from earlier work

Which “exploratory activity (Sap,Go) in the open half of the platform” value (male OF-1 mice [1]; 0.32-10 mg/kg p.o., not attaining statistical significance) does the source give for NC(=O)N1c2ccccc2C=Cc2ccccc21 [carbamazepine] here?
The value was “general tendency for increased exploratory activity”.

What about the overall ethological profile (male OF-1 mice [1]; 0.32/1/3.2 and 10 mg/kg p.o., 1 hr before testing) of the same compound?
The overall ethological profile was “No major changes in behaviour occurred”.

What about the “elements of stationary activity” value (male OF-1 mice [1]; at 10 mg/kg p.o.) of the same compound?
Its value is “significant decrease”.

And the “time spent in forward locomotion (Go) in the enclosed half” value (male OF-1 mice [1]; at 3.2 and 10 mg/kg p.o.)?
The value was “significant shortening”.

And the “non-social (NS) behaviour, frequency” value ([2]; 1 hr before 6 minute encounter)?
The value was “did not change”.

What about the “social investigation (SI)” value ([2]; 1 hr before 6 minute encounter, frequency and duration) of the same compound?
The value was “dose-related increase”.

What about the defensive ambivalence ([2]; 1 hr before encounter) of the same compound?
The defensive ambivalence was “reduced but, because of large variation did not attain significance”.

What about the “overall social contact (SIM): social investigation combined with mating behaviour” value ([2]; 1 hr before encounter) of the same compound?
The value was “preserved the clear sociotropic action”.

And the static-flight elements ([2]; 1 hr before encounter)?
The static-flight elements was “dose-related reduction persisted but also did not attain significance”.

And the “total number of ethological elements performed in the 6 minute encounter” value ([2]; 1 hr before encounter)?
Its value is “did not change”.

What about the “social withdrawal in the Intruder test” value [3] of the same compound?
Its value is “reverses social withdrawal”.

For CN1C(=O)CN=C(c2ccccc2)c2cc(Cl)ccc21 [diazepam], which “behavioural disinhibition in the HEP test” value (male OF-1 mice [4]) is on record?
The value was “demonstrable”.

And the “intruder's fear and tendency to scrutinize the resident partner” value (“intruder” rat)?
The value was “reduce the intruder's fear and to increase its tendency to scrutinize the resident partner”.

With CN1C(=O)CC(=O)N(c2ccccc2)c2cc(Cl)ccc21 [Clobazam] as the compound, how does the “number of shocks received (punished drinking), change vs vehicle control” value [5] read?
The value was “+64%”.

For Nc1nnc(-c2cccc(Cl)c2Cl)c(N)n1 [Lamotrigine], which “efficacy in treating post-traumatic stress disorder” value [6] is on record?
Its value is “some efficacy”.

With CC(N)Cc1ccccc1 (stereo not shown) [amphetamine] as the compound, how does the “behavioural disinhibition in the HEP test” value (male OF-1 mice [4]) read?
The value was “not”.

Source: US20090054414A1, “Rufinamide for the Treatment of Post-Traumatic Stress Disorder” (SYNOSIA THERAPEUTICS, priority 2007, published 2009)
